Measurements from US12708676B2, “Phosphate compounds for detecting neurological disorders” (Amydis, Inc., priority 2018, dated 2026).
Values after ≈ are worked out from the molar mass of the structure shown. Read-outs that look alike come from different tables or passages of the source.

Columns and labels:
[1] = molecular target: aggregated Aβ (Homo sapiens, UniProt P05067); assay: Fluorescent detection of Aβ in vitro; type: binding
[2] = molecular target: prion deposits (Mus musculus, UniProt P04925); type: in vivo; conditions: administered as Compound 10
Chain of prion deposits (P04925 23-230 limits assumed): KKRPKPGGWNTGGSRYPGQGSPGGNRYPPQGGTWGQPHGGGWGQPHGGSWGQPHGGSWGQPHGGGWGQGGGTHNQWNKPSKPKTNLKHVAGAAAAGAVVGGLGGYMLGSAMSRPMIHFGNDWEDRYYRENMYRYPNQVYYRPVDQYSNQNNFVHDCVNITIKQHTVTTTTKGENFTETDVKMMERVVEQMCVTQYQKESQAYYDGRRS

[3] = Rabbit pharmacokinetics of Compound 9, Study 2 (retina, brain, blood/plasma); type: in vivo; conditions: rabbit
Procedure: (§1) Compound 9 was injected into rabbits as a solution in 0.1 M phosphate buffer, pH 7.4 such that rabbits received either 30 mg of Compound 9 (Study 1) or 28 mg of Compound 9 (Study 2). The purpose of these studies was to confirm that Compound 9 could easily be converted into Compound 7 in vivo.
Study 2: The purpose of this study was to determine if higher concentrations of Compound 9 and/or Compound 7 was present at earlier time points in the tissues specified. Rabbits received a 1.4 mL injection of a 20 mg/mL solution of Compound 9 in 0.1 M phosphate buffer, pH 7.4. Blood was collected from rabbits (N=6) two minutes after receiving Compound 9 to determine the blood concentration at this time point (Table 8). Rabbits were then sacrificed at the specified time points (N=3 per time point) in the tables below and the average concentrations of Compound 9 and Compound 7 were determined in the retina (Table 6), brain (Table 7) and blood (Table 8).

[4] = molecular target: alpha-synuclein (Homo sapiens, UniProt P37840); assay: Example 9: ex vivo flatmount staining of human retinas with Compound 7 and SYN-1 Ab; type: binding; conditions: for Average No. of co-stained objects / Average No. of singly-stained objects: PD retina, per ~250,000 μm^2 area; for Average No. of co-stained objects: co-stained with SYN-1; for Co-localization with alpha-synuclein (SYN-1 Ab): 60 μM Compound 7
Procedure: To understand if Compound 7 (active drug) can detect retinal α-syn in human eyes, human retinal tissue was extracted post-mortem from both a healthy patient and a patient diagnosed with Parkinson's Disease, and stained with Compound 7, DAPI and a SYN1 antibody.
Eye dissection: Cornea, iris and lens were removed from the eye cup and the eye placed into 4% PFA for 1 hour. […] The different regions were mounted on separate slides.
Flatmount retinal staining: The tissue was fixed in room temperature 4% PFA for 20 minutes, washed, permeabilized, blocked (2.5% goat serum in PBST), stained with Alpha-synuclein antibody (SYN-1) at a dilution of 1:1000 and incubate overnight at 4° C., washed with PBST (3 times for 5 minutes), incubated with secondary antibody (Alexa fluor 647 anti-mouse) in dark for 1 hr at RT. The tissue was then washed with PB ST (3 times for 5 minutes), incubated with 60 μM Compound 7 for 30 minutes at RT, washed with PBS (3 times for 10 minutes), incubate with DAPI (300 nM or 100 ng/mL) in dark for 10 minutes, and washed with PBS (3 times for 5 minutes). The tissue was then mounted using antifade DAKO mounting media.
To determine the number of objects co-stained with Compound 7 and SYN1, the average number of objects co-stained with Compound 7 and SYN1 was quantified. This was completed for each quadrant of both the left and right eye (Table 10 and Table 11).

[5] = molecular target: Aβ plaques (Homo sapiens, UniProt P05067); assay: Example 7: ex vivo staining of human Alzheimer's disease tissue, co-localization with 6E10
[6] = Rabbit pharmacokinetics of Compound 9, Study 1 (retina, brain, blood); type: in vivo; conditions: for concentration at 15 min / concentration at 30 min / concentration at 60 min: Study 1, 30 mg Compound 9 injected
Procedure: as §1
Study 1: Rabbits received a 1.5 mL injection of a 20 mg/mL solution of Compound 9 in 0.1 M phosphate buffer, pH 7.4. Rabbits were sacrificed at the specified time points (N=3 per time point) in the tables below and the average concentration of Compound 9 and Compound 7 was determined in the retina (Table 3), brain (Table 4) and blood (Table 5).

[7] = molecular target: α-syn deposits (Homo sapiens, UniProt P37840); assay: Example 9: retinal imaging of Line 61 Parkinson's Disease Tg mouse model; type: in vivo
Text: Two transgenic mouse models of Parkinson's Disease (D-line and Line 61) were examined for retinal α-syn deposits. The models selected produce α-syn deposition in the brain, but to date production in the retina had not been determined. […] After live imaging, mice were sacrificed, and the brain and retina were harvested for immunofluorescence and biochemistry.
Accordingly, Line 61 model manifest retinal α-syn in ~30% of mice and was useful in showing the utility of the disclosed compounds. […] Brain tissue was extracted post-mortem from mice after the last imaging session and stained with DAPI and a SYN1 antibody confirming the presence of α-syn in the Line 61 Mouse brain.
To confirm objects detected in vivo were α-syn, retinal tissue was extracted post-mortem from mice after the last imaging session and stained with DAPI and a SYN1 antibody (FIG. 11).

[8] = molecular target: Aβ40 (Homo sapiens, UniProt P05067, D694N/E693Q); assay: Example 8: in vivo retinal imaging and ex vivo IHC of APPSwDI, PSAPP and wild type mice; parameters: species or system mouse; conditions: APPSwDI mouse
[9] = system: Aβ40; assay: as above; parameters: species or system mouse; conditions: PSAPP mouse
[10] = Solubility of Compound 7 in various media; type: physicochemical
Procedure: The physical properties of Compound 7 were determined.

[11] = brain, other: injection (site or type of injection not stated), Study 2, 28 mg Compound 9 injected, read-out: Avg Conc., brain
[12] = plasma, other: injection (site not specified), Study 2, 28 mg Compound 9 injected, read-out: Avg Conc., plasma
[13] = retina, other: injection (site not stated), Study 2, 28 mg Compound 9 injected, read-out: Avg Conc., retina
[14] = blood, other: injection (site not specified), read-out: Avg Conc., blood
[15] = retina, other: injection (kind of injection not stated), read-out: Avg Conc., retina
[16] = 15 minutes after iv Compound 10
[17] = labelling from in vivo injection of Compound 10

In the case of N#C/C(=C\c1ccc2cc(N3CCCCC3)ccc2c1)C(=O)NCCOCCOCCO [Compound 7, (E)-2-cyano-N-(2-(2-(2-hydroxyethoxy)ethoxy)ethyl)-3-(6-(piperidin-1-yl)naphthalen-2-yl)acrylamide], the “Detection of aggregated Aβ in vitro” value [1] is reported as “demonstrated the ability to detect aggregated Aβ”, the “Labelling of retinal prion deposits in vivo” value ([2]; pre-symptomatic prion-inoculated mice) is reported as “successfully labelled large objects around the optic disk and vasculature believed to be prion deposits” and the “Labelling of retinal prion deposits in vivo” value ([2]; terminally diseased prion mice) is reported as “successfully labelled large objects around the optic disk and vasculature believed to be prion deposits”. The concentration at 5 min [3, 11] was 316 ± 91.6 ng/g, the concentration at 10 min [3, 11] was 68.1 ± 8.86 ng/g and the concentration at 2 min ([3]; plasma, other: injection (site not specified), Study 2, 28 mg Compound 9 injected, 2 min, read-out: Avg Conc., plasma) was 1480 ± 409 ng/mL. The concentration at 5 min [3, 12] was 975 ± 317 ng/mL, the concentration at 10 min [3, 12] was 251 ± 13.9 ng/mL and the “Time at which Kp,brain was highest” value ([3]; post-dose of Compound 9) was 5 min. For the same molecule, the “Delivery past the blood brain barrier and into retinal tissue” value ([3]; via administration of Compound 9 diammonium salt) was “delivered past the blood brain barrier (BBB) and, more importantly, into retinal tissue”, the concentration at 5 min [3, 13] was 682 ± 119 ng/g and the concentration at 10 min [3, 13] was 183 ± 152 ng/g. For the same molecule, the concentration at 5 min ([3]; retina, Study 2, 28 mg Compound 9 injected, read-out: Avg Conc., retina) was 682 ng/g, the “Average No. of co-stained objects” value ([4]; left eye, Inferior) was 13.6 and the “Average No. of singly-stained objects” value ([4]; left eye, Inferior) was 0.87. For the same molecule, the “Average No. of co-stained objects” value ([4]; left eye, Nasal) was 13, the “Average No. of singly-stained objects” value ([4]; left eye, Nasal) was 0.75 and the “Average No. of co-stained objects” value ([4]; left eye, Superior) was 20. For the same molecule, the “Average No. of singly-stained objects” value ([4]; left eye, Superior) was 0.25, the “Average No. of co-stained objects” value ([4]; left eye, Temporal) was 12.37 and the “Average No. of singly-stained objects” value ([4]; left eye, Temporal) was 0.5. The “Average No. of co-stained objects” value ([4]; right eye, Inferior) was 12.12, the “Average No. of singly-stained objects” value ([4]; right eye, Inferior) was 0.75 and the “Average No. of co-stained objects” value ([4]; right eye, Nasal) was 14.3. The “Average No. of singly-stained objects” value ([4]; right eye, Nasal) was 1.75, the “Average No. of co-stained objects” value ([4]; right eye, Superior) was 16 and the “Average No. of singly-stained objects” value ([4]; right eye, Superior) was 0.5. The “Average No. of co-stained objects” value ([4]; right eye, Temporal) was 11.62, the “Average No. of singly-stained objects” value ([4]; right eye, Temporal) was 0.5 and the “Co-localization with alpha-synuclein (SYN-1 Ab)” value ([4]; post-mortem retinas of healthy human patient) was “very little or no co-localization”. The “Co-localization with alpha-synuclein (SYN-1 Ab)” value ([4]; post-mortem retinas of human PD patient) was “co-localization of Compound 7 and Alpha-Synuclein deposits (SYN-1 Ab) in all regions”, the “Binding to Aβ plaques in human tissue” value ([5]; brain and retinal tissue of human Alzheimer's patients) was “bind to Aβ plaques in both brain and retinal tissue” and the “Detection of aggregated Aβ ex vivo” value ([5]; ex vivo, human Alzheimer's brain tissue) was “demonstrated the ability to detect aggregated Aβ”. The “Kp,brain by 30 minutes” value ([6]; 30 minutes after injection of Compound 9) was “significantly decreased to undetectable values”, the concentration at 15 min [6, 14] was 217 ± 31.2 ng/mL and the concentration at 30 min [6, 14] was 9.41 ± 1.89 ng/mL. The concentration at 60 min [6, 14] was 2.1 ± 2.43 ng/mL, the concentration at 15 min ([6]; brain, other: injection (site not specified), read-out: Avg Conc., brain) was 0.987 ± 0.273 ng/g and the “Circulation time in the retina” value ([6]; levels significantly decreasing over an hour) was “relatively short”. The concentration at 15 min [6, 15] was 10.1 ± 7.3 ng/g, the concentration at 30 min [6, 15] was 2.13 ± 1.71 ng/g and the concentration at 60 min [6, 15] was 0.779 ± 0.325 ng/g. For the same molecule, the “Specificity for α-syn deposits” value ([7]; Line 61 model, via administration of Compound 10) was “specific for α-syn deposits associated with Parkinson's Disease”, the “Co-localization with SYN1” value ([7]; brain and retinal tissue of Tg mice) was “co-localizes with an anti-alpha-synuclein antibody (SYN1)” and the “Labelling in brain sections, ex vivo IHC” value [8, 16] was “amyloid deposits along a vessel labeled with Compound 7 and 6E10”. The “Structures labelled in retinal tissue” value ([8]; administered as Compound 10) was “labels both vessels and diffuse deposits in the retinal tissue”, the “Co-localization with 6E10 in retina, ex vivo IHC” value [8, 17] was “co-localized with a sequence specific antibody for Aβ (6E10)” and the “Labelling in brain sections, ex vivo IHC” value [9, 16] was “labeling of amyloid plaques with Compound 7 and 6E10”. For the same molecule, the “Co-localization with 6E10 in retina, ex vivo IHC” value [9, 17] was “co-localization of Compound 7 with 6E10”, the solubility ([10]; SGF, simulated gastric fluid) was 3600 µg/mL (≈ 8230 µM) and the solubility ([10]; castor oil, oil or lipid) was greater than 9000 µg/mL. For the same molecule, the solubility ([10]; n-octanol, organic solvent or mixture) was greater than 8000 µg/mL, the solubility ([10]; pH 4.0 buffer, pH 4, aqueous buffer) was 70 µg/mL (≈ 160 µM) and the solubility ([10]; pH 7.0 buffer, pH 7, aqueous buffer) was 4.6 µg/mL (≈ 10.5 µM). For the same molecule, the solubility ([10]; pH 7.4 buffer, pH 7.4, aqueous buffer) was 3.3 µg/mL (≈ 7.54 µM), the solubility ([10]; pH 9.0 buffer, pH 9, aqueous buffer) was 4.8 µg/mL (≈ 11 µM) and the solubility ([10]; water) was 1.7 µg/mL (≈ 3.89 µM).
